From patent US4237045A, “N-substituted cyclopeptide derivatives and preparation thereof” (American Home Products Corporation, priority 1978, dated 1980)

Tests used:
[1] = tested on: Klebsiella pneumoniae; assay: serial broth dilution test, growth inhibition; format: cell-based; settings: nutrient broth, incubated at 37° C. for 2 days, examined for presence of growth
Method: (§1) Grove and W. A. Randall in "Assay Methods of Antibiotics", Med. Encycl. Inc., New York, 1955.
(§2) For example, by employing a test like the serial broth dilution, see Grove and Randall, cited above, in which dilutions of the compounds of this invention in nutrient broth are inoculated with the microorganisms or fungi, described above, incubated at 37° C. for 2 days, respectively, and examined for the presence of growth, it may be shown that isomers L and M of cyclo-[N-[1-(1-methylethyl)-2-cyclohexylamino-2-oxo-ethyl]-alanyl-phenylalanyl-valylglycyl-leucyl-methionyl] (described in Example 2) are able to inhibit growth totally in this system of Klebsiella pneumoniae and Serratia marcescens at a concentration of 100/mcg/ml.

[2] = tested on: Serratia marcescens; assay: serial broth dilution test, growth inhibition; format: cell-based; settings: nutrient broth, incubated at 37° C. for 2 days, examined for presence of growth
Method: as §1, §2

SMILES: CSCC[C@@H]1NC(=O)[C@H](CC(C)C)NC(=O)CNC(=O)[C@H](C(C)C)NC(=O)[C@H](Cc2ccccc2)NC(=O)[C@H](C)N(C(C(=O)NC2CCCCC2)C(C)C)C1=O (stereo partly drawn) [isomer L, Cyclo[N-[1-(1-methylethyl)-2-cyclohexylamino-2-oxo-ethyl]-alanyl-phenylalanyl-valyl-glycyl-leucyl-methionyl]]
- concentration able to inhibit growth totally [1]: 100 µg/mL
- concentration able to inhibit growth totally [2]: 100 µg/mL
